For 71 compounds, outcome, EC50 and IC50 results are on record in PubChem BioAssay AID179 (DTP/NCI, 2004).

The assay relates to CEM cells HIV-1 protection, formazan growth assay. Nature of the assay: NCI AIDS Antiviral Assay. The settings on record: for IC50: measured here: growth of uninfected CEM cells. Put shortly:
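Category rules: moderately active means at least 50% protection on retest, and confirmed active means 100% protection reproducibly. The underlying data came from a formazan growth assay in HIV-1-infected CEM cells.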

Where “and” joins values, the source holds several entries; their conditions need not be identical. Equal entries are not always repeated. Calls of active or inactive are those of the source.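 The calls were made as follows: active = compounds giving half or more protection of infected cells from virus-caused growth loss, again on retest; inactive = the rest.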

In the case of `COC1OC(CS(=O)(=O)O)C(O)C(O)C1O` (stereo unspecified), the outcome was inactive.

On to `CCC1(c2c(F)c(F)c(N)c(F)c2F)CCC(=O)NC1=O` (stereo unspecified), for which the result was inactive.

On to `Cc1nc2c(N)ncnc2o1`, for which the EC50 is above 9.55 µM and the IC50 is above 9.55 µM.

Consider `FC(F)(F)c1cccc(N2NC(=S)N3C=CC=CC32)c1` (stereo unspecified), for which the EC50 is above 83.2 µM and the IC50 was above 83.2 µM.

As for `NC(=O)c1nc(-c2ccc(Cl)c(Cl)c2)nc2ccccc12`, the result was inactive. `c1ccc([P+](CCNCCNCC[P+](c2ccccc2)(c2ccccc2)c2ccccc2)(c2ccccc2)c2ccccc2)cc1`: the EC50 was above 355 µM and the IC50 amounted to 234 µM. Regarding `CC(=O)OCC1OC(n2c(=O)[nH]c(=O)c3n[nH]nc32)C(OC(C)=O)C(OC(C)=O)C1OC(C)=O` (stereo unspecified), the EC50 was above 269 µM and the IC50 was above 269 µM. For the compound `O=C(Nc1ncnc2c1ncn2C1CC(OC(=O)c2ccc([N+](=O)[O-])cc2)C(COC(=O)c2ccc([N+](=O)[O-])cc2)O1)c1ccccc1` (stereo unspecified), the outcome was inactive. As for `O=[N+]([O-])c1cc2c(c3nonc13)OCCCCO2`, the EC50 was above 200 µM and the IC50 amounted to 1.15 µM. Consider `Oc1ccc2ccccc2c1CNCc1c(O)ccc2ccccc12`, for which the EC50 was above 21.9 µM and the IC50 was above 21.9 µM. As to `COc1cc2cc(C(=O)N3CC(CCl)c4ccc(NCCN)cc43)[nH]c2c(OC)c1OC` (stereo unspecified), the EC50 was above 2 µM and the half-inhibitory concentration (IC50) was 0.813 µM. `CSc1nc(C(N)=O)c(NC(=O)c2ccccc2)s1`: the EC50 was above 200 µM and the IC50 was found to be 166 µM. On to `O=C1OC(CN2CCOCC2)CN1/N=C/c1ccc([N+](=O)[O-])o1` (stereo unspecified), for which the EC50 is above 200 µM and the IC50 is 41.7 µM. On the same counts, the results for `S=C1Nc2ccccc2SC1c1ccccc1` (stereo unspecified) are above 200 µM and 31.6 µM. In the case of `CC1SC2=NC3=C(c4ccccc4C3=O)C(c3ccc(F)cc3)N2C1=O` (stereo unspecified), the EC50 is above 37.2 µM and the IC50 is above 37.2 µM. Turning to `O=C1CCC(N2C(=O)C3C4c5ccccc5C(c5ccccc54)C3C2=O)C(=O)N1` (stereo unspecified), the EC50 is above 200 µM and the IC50 is above 200 µM.

With `COC(=O)c1ccc(C(=O)NC(Cc2ccc(Oc3cc(CC(NC(=O)c4ccccc4C(=O)OC)C(=O)OC)ccc3OC)cc2)C(=O)OC)cc1` (stereo unspecified), the EC50 was above 200 µM and the IC50 stood at 16.2 µM. With `CCS(=O)(=O)CCn1c(=O)c2c(ncn2C)n(C)c1=O`, the EC50 is above 200 µM and the IC50 was above 200 µM. As to `CCCCCCCCCCCC(=O)OCC1OC(n2cc(F)c(=O)[nH]c2=O)C(NC(=O)OCc2ccccc2)C(O)C1O` (stereo unspecified), the EC50 was above 30.9 µM and the IC50 is above 30.9 µM. On to `Cc1ccc(C2(O)CSC(=NC34CC5CC(CC(C5)C3)C4)N2C(P(=O)(O)O)P(=O)(O)O)cc1` (stereo unspecified), for which the EC50 is above 200 µM and the IC50 was 40.7 µM.

On to `C#CCNC(=O)N(CC#C)N=O`, for which the EC50 was above 1100 µM and the 50% inhibitory concentration (IC50) was 166 µM. On to `COc1ccc2nc3ccccc3c(NCCCN(CCCl)CCCl)c2c1`, for which the result was inactive. Turning to `CCOc1ccccc1NC(=O)CCc1nc(=S)[nH][nH]1`, the EC50 was above 851 µM and the IC50 stood at 316 µM.

Turning to `Cc1nc2c(=O)[nH]c(=O)nc-2n(CCO)c1C`, the EC50 was above 100 µM and the IC50 worked out at 40.7 µM. In the case of `CC1(C)CCCC2CC2CCC(C)(C)C1=O` (stereo unspecified), the EC50 is above 200 µM and the IC50 worked out at 105 µM.

`O=c1c2ncn(CCCl)c2n(-c2ccccc2)c(=S)n1-c1ccccc1`: the EC50 is above 200 µM and the IC50 is above 200 µM. As for `CN(CCN(C)C(=O)CCn1cc(F)c(=O)[nH]c1=O)C(=O)CCn1cc(F)c(=O)[nH]c1=O`, the EC50 was above 57.5 µM and the IC50 was above 57.5 µM. `COc1cc(OC)cc(C2=NNc3n[nH]c(=S)n3N2)c1`: the EC50 was above 123 µM and the IC50 is above 123 µM.

Take `Cc1ccc(SC[C@@]2(C(F)F)NC(=O)NC2=O)cc1`: the EC50 is above 200 µM and the IC50 is above 200 µM. Take `COC(=O)C(C(=O)C(=O)Nc1ccccc1C(C)=O)c1nc2ccc(Cl)cc2[nH]c1=O` (stereo unspecified): the EC50 was above 58.9 µM and the IC50 was above 58.9 µM.

On to `Nc1nnc(-c2ccco2)c(-c2ccco2)n1`, for which the EC50 was above 200 µM and the IC50 came to 186 µM. On the same counts, the results for `CN1C(=O)CN=C(c2ccc[nH]2)c2cc(Cl)ccc21` (tested in a mixture with another compound) are 11.2 µM and 79.4 µM. On to `O=C1CCNC/C1=C\c1ccccc1`, for which the EC50 was above 6920 µM and the IC50 was 19.1 µM. On the same counts, the results for `O=C(NCc1ccc(Cl)c(Cl)c1)c1nc2ccccc2nc1NCc1ccc(Cl)c(Cl)c1` are above 126 µM and 55 µM. On to `Nc1nnc2c(-c3ccccc3)[nH]nc2n1`, for which the outcome was inactive. Turning to `COc1ccc(/C=N/O)cc1OC`, the EC50 is above 1380 µM and the IC50 was found to be 776 µM. On the same counts, the results for `C=CCc1cccc(/C(O)=C/C(=O)/C=C/c2ccccc2Cl)c1O` are above 200 µM and 35.5 µM. Consider `COC(=O)[C@@H]1[C@H](O)[C@H](C)[C@H](O)[C@@](C)(O)/C=C\C=C(C)C(=O)Nc2c(C)c(OC(C)=O)c3c(c2O)C(=O)C(C)=C2OCOC(=C23)C(C)=C[C@@](C)(O)[C@H](O)[C@@H](C)[C@H]1OC(C)=O`, for which the EC50 is above 302 µM; the IC50 was 17 µM and > 43.7 µM.

For the compound `Cc1cc(=O)oc2c3c4c(cc12)CCCN4CCC3`, the EC50 is above 14.8 µM and the IC50 was above 14.8 µM.

Regarding `Cc1ccc(C(=O)OCC(C)C)cc1N=NN(C)C`, the EC50 is above 27.5 µM and the IC50 is above 27.5 µM.

Turning to `COc1ccc(C(=O)C(C(=O)CCC(=O)Nc2ccc(Cl)c(Cl)c2)c2ccc(OC)cc2)cc1` (stereo unspecified), the EC50 is above 72.4 µM and the IC50 is above 72.4 µM.

On to `Cc1cn(C2CC(N=[N+]=[N-])C(COC(=O)[C@H]3CCC4[C@@H]5CCC6=CC(=O)CC[C@]6(C)C5[C@@H](O)C[C@@]43C)O2)c(=O)[nH]c1=O` (stereo partly specified), for which the EC50 is 0.138 µM and the IC50 was found to be 24 µM. As to `CC(=O)CC(C)=O.CC(=O)CC(C)=O.[O]=[V]`, the outcome was inactive. Regarding `CC(O)C(NCNC(=O)C1=C(O)C2(O)C(=O)C3=C(O)c4c(O)cccc4C(C)(O)C3CC2C(N(C)C)C1=O)C(=O)O` (stereo unspecified), the EC50 was above 37.2 µM and the IC50 was above 37.2 µM. As for `Nc1[nH]c(=S)c2c(N)n[nH]c2c1C(=O)Nc1ccccc1`, the EC50 is above 200 µM and the IC50 was 91.2 µM. With `Cc1ccnc(SC(F)(F)c2nc3ccccc3o2)n1`, the EC50 is 0.263 µM and the IC50 was found to be 2 µM. Take `O=C1C(=c2ccc(=C3C(=O)c4ccc([N+](=O)[O-])cc4[N+]3=O)cc2)N([O-])c2cc([N+](=O)[O-])ccc21`: the EC50 was above 11.5 µM and the IC50 is above 11.5 µM.

As for `Clc1cccc(Sc2ccccc2)c1`, the EC50 was above 23.4 µM and the IC50 was above 23.4 µM.

In the case of `Cn1c(=O)c2c(c3c(c(=O)n(C)c(=O)n3C)n2Cc2ccccc2)n(C)c1=O`, the EC50 is above 93.3 µM and the IC50 is above 93.3 µM. On to `O=S1(=O)CC(c2ccccc2)=NN=C(c2ccccc2)C1`, for which the EC50 is above 61.7 µM and the IC50 is above 61.7 µM. For `CN(CCN(C)C(=S)NN)C(=S)NN`, the EC50 is above 200 µM and the IC50 was determined as 132 µM. With `O=C1CSC(=Nc2ccccc2F)N1c1ccccc1F`, the EC50 was above 107 µM and the IC50 is above 107 µM. For the compound `CC(C(=O)O)[S+]1CCOCC1` (stereo unspecified), the EC50 was 0.0631 µM and the IC50 is above 200 µM. For `CCOC(=O)NC(=O)c1cn(CCCCCCCCCCC(=O)NCCCN2CCN(CCCNC(=O)CCCCCCCCCCn3cc(C(=O)NC(=O)OCC)c(=O)[nH]c3=O)CC2)c(=O)[nH]c1=O`, the result was inactive. Turning to `CN(C)C(c1ccccc1)C(O)c1ccccc1` (stereo unspecified), the result was inactive.

In the case of `COc1cc2oc(=O)ccc2cc1CC=C(C)C`, the EC50 is above 40.7 µM and the IC50 was above 40.7 µM.

Take `COc1ccc(C2CC(c3c(C)nn(-c4ccccc4)c3-c3ccc(C)cc3O)=NN2c2ccccc2)cc1` (stereo unspecified): the EC50 is above 200 µM and the IC50 amounted to 12.9 µM. Take `CCCCCC=C(c1cc(Cl)c(OC)c(C(=O)O)c1)c1cc(Cl)c(OC)c(C(=O)O)c1`: the EC50 is 129 µM and > 126 µM; the IC50 was 155 µM and 83.2 µM. Regarding `CN(C)/N=C1\C=C2CC[C@H](O[Si](C)(C)C(C)(C)C)[C@@]2(C)CC1`, the EC50 is above 200 µM and the 50% inhibitory concentration (IC50) was 12.3 µM. Regarding `C(=N\NC1=NCCN1)/c1cccc2cc3ccncc3nc12`, the EC50 was above 200 µM and the IC50 was determined as 0.891 µM. As to `COc1cc2c([C@@H](OC(=O)c3ccccc3)c3ccc4c(c3)OCO4)nccc2c(OC)c1OC`, the outcome was inactive. In the case of `CC(=O)OCC1OC(NC(=S)Nc2nc(-c3ccccc3)cc(-c3cc(Cl)ccc3O)n2)C(OC(C)=O)C(OC(C)=O)C1OC(C)=O` (stereo unspecified), the EC50 is above 200 µM and the IC50 was 5.13 µM. As to `CN(N)/N=N/c1nc[nH]c1C(N)=O`, the EC50 is above 2 µM and the IC50 was 1.45 µM. Regarding `CC(C)(C)NC1C2CCC(C)(C1O)C2(C)C` (stereo unspecified), the EC50 was above 200 µM and the IC50 was above 200 µM. Consider `C/C(=C1/CCCC2(N=NCC2c2ccccc2)C1=O)c1ccccc1` (stereo unspecified), for which the EC50 was above 8.32 µM and the IC50 was above 8.32 µM. As to `CC1OC(c2ccc3c(c2O)C(=O)C2=C(C3=O)[C@H]3OC(=O)C[C@H]3O[C@@H]2C)CC(N(C)C)C1O` (stereo partly specified), the EC50 is above 107 µM and the IC50 came to 0.0537 µM. For the compound `CC(=O)Nc1c(C#N)c2n(c1C(=O)Nc1ccccc1)CCCC2`, the EC50 was above 200 µM and the concentration for half-maximal inhibition (IC50) was above 200 µM. In the case of `Cc1cc2c(=O)cc(-c3ccc(Cl)c(Cl)c3)oc2c(C(=O)O)c1C`, the outcome was inactive. Consider `CCCCc1c2c(nc3c1CCCC3O)/C(=C/c1ccccc1)CCC2` (stereo unspecified), for which the EC50 is above 6.31 µM and the IC50 was above 6.31 µM. `N#C/C(N)=C(\C#N)NC=NCc1ccccc1`: the EC50 is above 200 µM and the IC50 is above 200 µM. Consider `Nc1nc2cnc(COc3ccccc3)nc2c(=O)[nH]1`, for which the EC50 is above 200 µM and the IC50 was above 200 µM.
